{
  "source": "ChEMBL document CHEMBL5346956",
  "about": "“Opportunities and Challenges for Inhibitors Targeting Citrate Transport and Metabolism in Drug Discovery” (J Med Chem, 2023)",
  "key": {"ATP-citrate synthase [1]": {"molecular_target": "T1, ATP-citrate synthase (Homo sapiens, UniProt P53396)", "T1 sequence (P53396 whole entry)": "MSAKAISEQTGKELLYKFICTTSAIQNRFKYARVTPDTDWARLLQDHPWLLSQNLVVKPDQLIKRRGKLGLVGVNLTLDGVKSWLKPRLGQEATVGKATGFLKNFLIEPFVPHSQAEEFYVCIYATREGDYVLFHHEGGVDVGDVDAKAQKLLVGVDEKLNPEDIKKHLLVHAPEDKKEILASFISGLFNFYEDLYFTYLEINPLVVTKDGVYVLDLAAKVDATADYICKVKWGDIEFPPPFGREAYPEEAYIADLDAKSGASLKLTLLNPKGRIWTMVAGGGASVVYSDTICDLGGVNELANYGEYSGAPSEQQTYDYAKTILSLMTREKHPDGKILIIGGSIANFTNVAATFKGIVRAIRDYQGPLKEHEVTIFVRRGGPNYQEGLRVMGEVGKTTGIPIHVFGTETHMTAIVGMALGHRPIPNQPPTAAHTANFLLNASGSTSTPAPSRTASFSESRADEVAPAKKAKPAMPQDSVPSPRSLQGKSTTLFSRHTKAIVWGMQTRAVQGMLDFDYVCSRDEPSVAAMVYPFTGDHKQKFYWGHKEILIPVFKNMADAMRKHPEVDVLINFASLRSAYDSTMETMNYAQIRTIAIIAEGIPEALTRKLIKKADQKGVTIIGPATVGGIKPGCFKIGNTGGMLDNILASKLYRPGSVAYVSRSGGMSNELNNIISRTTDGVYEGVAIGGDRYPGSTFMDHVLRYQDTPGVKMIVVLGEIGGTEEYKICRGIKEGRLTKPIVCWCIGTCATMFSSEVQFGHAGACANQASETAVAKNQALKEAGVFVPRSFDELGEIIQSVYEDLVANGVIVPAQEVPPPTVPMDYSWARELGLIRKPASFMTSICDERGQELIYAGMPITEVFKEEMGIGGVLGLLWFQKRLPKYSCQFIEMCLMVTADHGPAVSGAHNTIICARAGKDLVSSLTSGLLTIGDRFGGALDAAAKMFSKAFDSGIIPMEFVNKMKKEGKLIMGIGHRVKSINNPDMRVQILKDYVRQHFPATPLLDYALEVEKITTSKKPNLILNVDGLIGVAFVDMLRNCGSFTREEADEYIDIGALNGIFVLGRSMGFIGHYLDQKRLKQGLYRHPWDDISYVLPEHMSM", "assay": "Binding affinity to ACLY (unknown origin) assessed as inhibition constant"}, "ATP-citrate synthase [2]": {"molecular_target": "T1, ATP-citrate synthase"}, "in vitro": {"assay": "in vitro", "details": "human, liver microsomes"}, "ATP-citrate synthase [3]": {"molecular_target": "T1, ATP-citrate synthase", "remark": "listed apart in the source"}, "HeLa": {"system": "HeLa", "assay": "Antiproliferative activity against human HeLa cells assessed as inhibition of cell growth measured after 24 hrs", "format": "functional, cell-based"}, "[4]": {"molecular_target": "T2, Na(+)/dicarboxylate cotransporter 3 (Homo sapiens, UniProt Q8WWT9)", "T2 sequence (Q8WWT9 whole entry)": "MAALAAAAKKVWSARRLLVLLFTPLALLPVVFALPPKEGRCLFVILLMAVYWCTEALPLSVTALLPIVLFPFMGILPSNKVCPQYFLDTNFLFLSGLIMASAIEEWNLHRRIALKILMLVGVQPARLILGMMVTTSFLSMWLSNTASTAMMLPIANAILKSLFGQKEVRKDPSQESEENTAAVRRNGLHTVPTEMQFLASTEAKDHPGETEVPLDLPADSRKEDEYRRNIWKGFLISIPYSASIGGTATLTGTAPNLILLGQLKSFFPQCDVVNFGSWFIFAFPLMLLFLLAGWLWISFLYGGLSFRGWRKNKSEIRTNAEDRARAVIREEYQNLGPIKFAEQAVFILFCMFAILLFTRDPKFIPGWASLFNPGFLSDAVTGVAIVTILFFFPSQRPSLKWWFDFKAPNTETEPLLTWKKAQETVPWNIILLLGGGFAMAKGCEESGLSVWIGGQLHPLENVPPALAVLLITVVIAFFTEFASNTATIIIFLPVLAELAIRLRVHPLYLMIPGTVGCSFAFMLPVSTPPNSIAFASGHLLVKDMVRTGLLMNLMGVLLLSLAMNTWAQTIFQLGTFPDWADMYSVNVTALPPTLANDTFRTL", "assay": "Inhibition of human SLC13A3 in HepG2 cells by measuring […] uptake", "format": "cell-based"}, "[5]": {"assay": "Inhibition of mouse mINDY in HEK293 cells", "format": "cell-based"}, "[6]": {"molecular_target": "T3, Tricarboxylate transport protein, mitochondrial (Homo sapiens, UniProt P53007)", "assay": "Inhibition of SLC25A1 (unknown origin) at 1 uM relative to control"}, "ATP-citrate synthase [7]": {"molecular_target": "T1, ATP-citrate synthase", "remark": "listed apart in the source"}, "[8]": {"assay": "Metabolic stability in rat liver microsomes assessed as half life", "format": "ADME, Microsome"}, "ATP-citrate synthase [9]": {"molecular_target": "T4, ATP-citrate synthase (Rattus norvegicus, UniProt P16638)", "T4 sequence (P16638 whole entry)": "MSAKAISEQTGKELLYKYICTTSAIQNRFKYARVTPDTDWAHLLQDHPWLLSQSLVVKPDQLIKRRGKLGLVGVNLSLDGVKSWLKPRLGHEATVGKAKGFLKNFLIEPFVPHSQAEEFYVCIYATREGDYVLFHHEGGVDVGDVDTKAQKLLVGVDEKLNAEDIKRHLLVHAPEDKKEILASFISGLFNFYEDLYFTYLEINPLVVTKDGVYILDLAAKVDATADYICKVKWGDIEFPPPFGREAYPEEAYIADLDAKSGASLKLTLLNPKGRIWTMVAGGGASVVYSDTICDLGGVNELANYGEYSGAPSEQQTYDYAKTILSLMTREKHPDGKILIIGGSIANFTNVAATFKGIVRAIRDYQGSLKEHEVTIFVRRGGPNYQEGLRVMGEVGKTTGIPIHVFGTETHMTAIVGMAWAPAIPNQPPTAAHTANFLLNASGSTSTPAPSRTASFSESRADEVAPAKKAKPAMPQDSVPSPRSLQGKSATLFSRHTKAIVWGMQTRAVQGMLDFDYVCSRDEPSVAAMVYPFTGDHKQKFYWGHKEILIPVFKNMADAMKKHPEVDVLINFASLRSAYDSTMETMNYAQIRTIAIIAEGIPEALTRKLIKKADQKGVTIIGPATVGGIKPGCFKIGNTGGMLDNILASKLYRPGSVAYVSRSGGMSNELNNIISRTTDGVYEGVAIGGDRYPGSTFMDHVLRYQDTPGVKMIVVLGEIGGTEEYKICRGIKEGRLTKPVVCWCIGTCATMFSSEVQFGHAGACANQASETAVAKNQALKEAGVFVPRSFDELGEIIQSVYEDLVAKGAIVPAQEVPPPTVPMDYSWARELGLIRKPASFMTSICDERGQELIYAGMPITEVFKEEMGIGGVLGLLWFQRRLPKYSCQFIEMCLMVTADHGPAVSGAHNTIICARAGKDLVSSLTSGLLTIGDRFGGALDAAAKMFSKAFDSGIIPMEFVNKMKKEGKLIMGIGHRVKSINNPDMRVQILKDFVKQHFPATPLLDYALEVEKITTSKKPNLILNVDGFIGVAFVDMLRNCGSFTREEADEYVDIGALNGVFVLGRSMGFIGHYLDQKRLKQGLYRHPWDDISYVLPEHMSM", "assay": "Binding affinity to rat ACLY assessed as inhibition constant measured after 20 mins"}, "[10]": {"molecular_target": "Na(+)/citrate cotransporter (Homo sapiens, UniProt Q86YT5)", "sequence (Q86YT5 whole entry)": "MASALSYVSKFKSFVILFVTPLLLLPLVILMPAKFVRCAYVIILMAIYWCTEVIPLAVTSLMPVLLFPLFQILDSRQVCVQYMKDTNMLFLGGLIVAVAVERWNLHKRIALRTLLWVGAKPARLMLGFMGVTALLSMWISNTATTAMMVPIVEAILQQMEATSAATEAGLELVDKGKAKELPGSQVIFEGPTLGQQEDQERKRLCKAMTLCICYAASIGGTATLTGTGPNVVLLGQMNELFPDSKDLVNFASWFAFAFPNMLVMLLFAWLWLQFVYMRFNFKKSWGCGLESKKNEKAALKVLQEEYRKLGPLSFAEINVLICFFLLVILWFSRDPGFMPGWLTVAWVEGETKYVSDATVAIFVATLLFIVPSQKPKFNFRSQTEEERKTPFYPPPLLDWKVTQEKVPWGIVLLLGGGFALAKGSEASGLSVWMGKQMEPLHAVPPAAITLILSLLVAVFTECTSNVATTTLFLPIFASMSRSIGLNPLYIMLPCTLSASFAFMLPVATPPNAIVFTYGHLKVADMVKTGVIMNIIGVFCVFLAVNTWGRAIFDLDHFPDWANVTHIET", "assay": "Inhibition of recombinant human SLC13A5 in HEK293T cells", "format": "cell-based"}, "[11]": {"molecular_target": "T3, Tricarboxylate transport protein, mitochondrial", "assay": "Binding affinity to human SLC25A1 assessed as inhibition constant"}, "[12]": {"molecular_target": "T3, Tricarboxylate transport protein, mitochondrial", "assay": "Inhibition of human SLC25A1 at 1 uM relative to control"}},
  "note": "pIC50, pKd, pKi: −log10 of the molar value.",
  "data": [
    {"smiles": "O=C(O)CC(O)(CSCCCCCCc1ccc(Cl)cc1Cl)C(=O)O", "note": "(stereo unspecified)", "values": [
      {"measurement": "pKi", "setting": "ATP-citrate synthase [1]", "value": 5.92}
    ]},
    {"smiles": "COC(=O)c1cc(Cl)c(O)c(S(=O)(=O)Nc2cc(-c3ccccc3)c(F)cc2F)c1", "values": [
      {"measurement": "pKd", "setting": "ATP-citrate synthase [2]", "value": 8.66},
      {"measurement": "pKi", "setting": "ATP-citrate synthase [1]", "value": 8.15},
      {"measurement": "half-life", "setting": "in vitro", "value": 0.056, "unit": "h"},
      {"measurement": "pIC50", "setting": "ATP-citrate synthase [3]", "value": 8.68}
    ]},
    {"smiles": "O=C1NCc2ccccc2-c2cc(c(F)cc2F)NS(=O)(=O)c2cc1cc(Cl)c2O", "values": [
      {"measurement": "half-life", "setting": "in vitro", "value": 8.85, "unit": "h"}
    ]},
    {"smiles": "O=c1c(O)c(-c2ccc(O)cc2)oc2c(O)c(O)cc(O)c12", "note": "[HERBACETIN]", "values": [
      {"measurement": "pIC50", "setting": "HeLa", "value": 6.30}
    ]},
    {"smiles": "O=C(Nc1cc(Cl)cc(C(F)(F)F)c1)OCCC(F)(F)F", "values": [
      {"measurement": "pIC50", "setting": "[4]", "value": 6.80},
      {"measurement": "pIC50", "setting": "[5]", "value": 6.74}
    ]},
    {"smiles": "O=C(O)c1cccc(C(=O)O)c1C(=O)O", "values": [
      {"measurement": "inhibition", "setting": "[6]", "value": 95, "unit": "%"}
    ]},
    {"smiles": "CC(C)(CCCC/C=C/CCCCCC(C)(C)C(=O)O)C(=O)O", "values": [
      {"measurement": "pIC50", "setting": "ATP-citrate synthase [7]", "value": 5.27}
    ]},
    {"smiles": "[2H]C([2H])(CCCCC(C)(C)C(=O)O)C(O)C([2H])([2H])CCCCC(C)(C)C(=O)O", "values": [
      {"measurement": "half-life", "setting": "[8]", "value": "> 2.42", "unit": "h"}
    ]},
    {"smiles": "[2H]C(O)(CCCCCC(C(=O)O)(C([2H])([2H])[2H])C([2H])([2H])[2H])CCCCCC(C(=O)O)(C([2H])([2H])[2H])C([2H])([2H])[2H]", "values": [
      {"measurement": "half-life", "setting": "[8]", "value": "> 2.42", "unit": "h"}
    ]},
    {"smiles": "C[C@@H]1C[C@H]2O[C@@H]2/C=C\\C=C\\C(=O)Cc2c(Cl)c(O)cc(O)c2C(=O)O1", "note": "[RADICICOL]", "values": [
      {"measurement": "pKi", "setting": "ATP-citrate synthase [1]", "value": 4.89}
    ]},
    {"smiles": "[2H]C(O)(CCCCCC(C)(C)C(=O)O)CCCCCC(C)(C)C(=O)O", "values": [
      {"measurement": "half-life", "setting": "[8]", "value": "> 2.42", "unit": "h"}
    ]},
    {"smiles": "O=C(O)CC(CSCCCCCCc1ccc(Cl)cc1Cl)C(=O)O", "note": "(stereo unspecified)", "values": [
      {"measurement": "pKi", "setting": "ATP-citrate synthase [1]", "value": 5.92}
    ]},
    {"smiles": "O=C(O)CC(O)(CCCCCCCCc1ccc(Cl)cc1Cl)C(=O)O", "note": "(stereo unspecified)", "values": [
      {"measurement": "pKi", "setting": "ATP-citrate synthase [1]", "value": 5.92}
    ]},
    {"smiles": "O=C(O)C[C@@]1(O)C[C@@H](Cc2ccc(Cl)cc2Cl)OC1=O", "values": [
      {"measurement": "pKi", "setting": "ATP-citrate synthase [9]", "value": 6.00}
    ]},
    {"smiles": "O=C(O)CC(O)(CC(=O)CCCCCCc1ccc(Cl)cc1Cl)C(=O)O", "note": "(stereo unspecified)", "values": [
      {"measurement": "pKi", "setting": "ATP-citrate synthase [1]", "value": 5.92}
    ]},
    {"smiles": "[2H]C([2H])(CCCCC(C)(C)C(=O)O)C([2H])(O)C([2H])([2H])CCCCC(C)(C)C(=O)O", "values": [
      {"measurement": "half-life", "setting": "[8]", "value": "> 2.42", "unit": "h"}
    ]},
    {"smiles": "O=C(O)C[C@](O)(C[C@H](O)CCCCCCc1ccc(Cl)cc1Cl)C(=O)O", "values": [
      {"measurement": "pKi", "setting": "ATP-citrate synthase [1]", "value": 6.00}
    ]},
    {"smiles": "Cc1nc(OC(F)F)ccc1C(C)N1CCc2c(C#N)c(Cl)nc(NCC#N)c2C1", "note": "(stereo unspecified)", "values": [
      {"measurement": "pIC50", "setting": "[10]", "value": "> 7.30"},
      {"measurement": "pIC50", "setting": "[4]", "value": "> 7.30"}
    ]},
    {"smiles": "O=C(O)c1ccc(Cl)c(S(=O)(=O)Nc2cccc([N+](=O)[O-])c2)c1", "values": [
      {"measurement": "pKi", "setting": "[11]", "value": 4.32},
      {"measurement": "inhibition", "setting": "[6]", "value": 84.7, "unit": "%"},
      {"measurement": "inhibition", "setting": "[12]", "value": 84.7, "unit": "%"}
    ]}
  ]
}
